Measured values published in publication PMC8143347, “Metabolism and Interspecies Variation of IMMH-010, a Programmed Cell Death Ligand 1 Inhibitor Prodrug” (Pharmaceutics, 2021).

Key:
[1] = Metabolism in dog liver S9 fractions; type: in vitro ADME
Experimental: (§1) IMMH-010 metabolism was compared in human, monkey, dog, and rat liver S9 homogenates. IMMH-010 (10 μM) was incubated with liver S9 homogenate protein (0.5 mg protein/mL) and a reduced nicotinamide adenine dinucleotide phosphate (NADPH) regenerating system in a final volume of 0.2 mL Tris-HCl buffer (50 mM, pH 7.4) containing 5 mM MgCl2. The reactions were performed in triplicate. After 2 min of preincubation at 37 °C, reactions were initiated by the addition of IMMH-010 (10 μM). The samples were collected 0, 5, 10, and 20 min after incubation, 2 volumes of acetonitrile were added to terminate the reaction. After vortexing and centrifugation, IMMH-010, YPD-29B, M3, and M4 in the supernatant were analyzed by LC-MS/MS.
(§2) All statistics were calculated using GraphPad Prism 8.0 software (San Diego, CA, USA) designed for one-way ANOVA. Pharmacokinetic parameters were calculated with a non-compartmental analysis using WinNonlin Version 6.3 (Pharsight, Mountain View, CA, USA). ADMET predictor V10.0 (Simulations Plus, Inc., Lancaster, CA, USA) and Microsoft Excel (Microsoft, Redmond, WA, USA) were used to process the data (i.e., half-life (t1/2) and hepatic clearance (CLhep) determination). Data were expressed as means ± standard deviations (SD). Results were considered statistically significant if the p-value <0.05, <0.01 and <0.001.

[2] = Metabolism in human liver S9 fractions; type: in vitro ADME
Experimental: as §1, §2

CES1 = molecular target: T1, CES1 (Homo sapiens, UniProt P23141); test: IMMH-010 hydrolysis by recombinant human CES1; type: in vitro ADME; parameters: purchased Cypex Ltd. (Dundee, United Kingdom); settings: 10 μM, CES1 0.1 mg/mL, 15 min, 37 °C
T1 sequence (P23141 18-567): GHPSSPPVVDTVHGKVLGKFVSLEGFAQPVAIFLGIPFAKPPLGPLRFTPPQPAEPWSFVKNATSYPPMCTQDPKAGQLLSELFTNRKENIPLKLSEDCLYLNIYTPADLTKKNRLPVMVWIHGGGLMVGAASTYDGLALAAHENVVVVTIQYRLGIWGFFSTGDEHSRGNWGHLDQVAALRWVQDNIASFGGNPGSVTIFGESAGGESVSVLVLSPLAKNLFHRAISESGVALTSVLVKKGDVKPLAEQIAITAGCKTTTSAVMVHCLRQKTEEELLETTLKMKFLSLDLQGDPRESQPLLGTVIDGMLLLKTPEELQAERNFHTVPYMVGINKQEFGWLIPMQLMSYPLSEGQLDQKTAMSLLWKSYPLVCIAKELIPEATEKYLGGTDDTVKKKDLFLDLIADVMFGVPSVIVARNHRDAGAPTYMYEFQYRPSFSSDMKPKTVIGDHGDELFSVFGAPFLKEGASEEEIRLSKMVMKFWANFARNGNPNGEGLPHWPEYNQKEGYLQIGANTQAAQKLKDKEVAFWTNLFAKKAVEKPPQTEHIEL
Experimental: (§3) To verify the role of CES1, CES2, and AADAC in human metabolism of […]-010 (10 μM) was incubated individually with recombinant human CES1, CES2, and AADAC (0.1 mg protein/mL) at 37 °C for 15 min. Lidocaine (500 μM), CPT-11 (2 μM), and phenacetin (1 mM), which are substrates of CES1, CES2, and AADAC, were used as positive controls.

PD-1/PD-L1 = settings: stated in introduction, source not given; read-out: PD-L1 inhibitory activity IC50; cited from earlier work
[3] = Metabolism in monkey liver S9 fractions; type: in vitro ADME
Experimental: as §1, §2

[4] = Body weight in B16F10 model
Experimental: The antitumor activity of IMMH-010 was evaluated by B16F10 melanoma and MC38 colon carcinoma xenograft models. The B16F10 and MC38 cells were resuspended in saline (1.5 × 10^6 cells/0.2 mL saline) and injected subcutaneously into the right flanks of each mouse on day 0. The treated mice received once-daily oral administration of IMMH-010 maleate (1.25, 2.5, 5, and 10 mg/kg, n = 10) by oral gavage (PO) for 19 consecutive days, whereas the control mice received vehicle (0.5% carboxymethyl cellulose, n = 10). The mice in the positive control group received the anti-mouse PD-L1 antibody (696618M2, Bio X Cell, West Lebanon, NH, USA) at 10 mg/kg intraperitoneally every 3 days (n = 10). The first-line antineoplastic drug cyclophosphamide (CTX) was administered at doses of 80 and 40 mg/kg weekly in the B16F10 and MC38 models (n = 10), respectively. After the last treatment, on day 19, the mice were sacrificed, and the tumor and spleen were stripped and weighed. The tumor growth inhibition (TGI) was calculated as TGI = (1 − treatment group tumor weight/vehicle group tumor weight) × 100.

recombinant human AADAC = molecular target: T2, recombinant human AADAC (Homo sapiens, UniProt P22760); test: IMMH-010 hydrolysis by recombinant human AADAC; type: in vitro ADME; settings: 10 μM, AADAC 0.1 mg/mL, 15 min, 37 °C
T2 construct: purchased CUSABIO Biotech Co., Ltd. (Wuhan, China)
T2 sequence (P22760 1-399): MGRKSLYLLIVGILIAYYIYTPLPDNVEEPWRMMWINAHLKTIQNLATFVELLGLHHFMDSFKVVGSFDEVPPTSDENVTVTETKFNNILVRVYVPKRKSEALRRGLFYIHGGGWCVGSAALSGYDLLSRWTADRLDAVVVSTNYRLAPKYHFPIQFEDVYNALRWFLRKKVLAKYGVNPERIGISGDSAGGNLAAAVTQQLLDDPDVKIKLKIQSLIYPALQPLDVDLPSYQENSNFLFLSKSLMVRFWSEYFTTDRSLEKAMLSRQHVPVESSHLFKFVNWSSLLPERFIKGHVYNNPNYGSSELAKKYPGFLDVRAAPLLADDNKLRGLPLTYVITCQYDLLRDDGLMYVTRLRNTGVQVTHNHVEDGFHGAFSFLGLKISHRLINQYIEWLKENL
Experimental: as §3

estimated CLhep ([1]; from dog liver S9): 36.4 mL/min/kg | half-life at 10 μM ([1]; pH 7.4, dog liver S9 0.5 mg protein/mL, 10 μM, NADPH): 4.9 min | estimated CLhep ([2]; from human liver S9): 18.2 mL/min/kg | half-life at 10 μM ([2]; pH 7.4, human liver S9 0.5 mg protein/mL, 10 μM, NADPH): 6.66 min | CLhep as share of hepatic blood flow ([2]; range over human, monkey, dog and rat liver S9): 83.4–91.0% | remaining amount of IMMH-010 (CES1): 12.9% | estimated CLhep ([3]; from monkey liver S9): 37.2 mL/min/kg | half-life at 10 μM ([3]; pH 7.4, monkey liver S9 0.5 mg protein/mL, 10 μM, NADPH): 8.28 min | remaining amount of IMMH-010 (recombinant human AADAC): 98.7%
Structure (SMILES): CC(C)OC(=O)[C@H](CO)NCc1cc(Cl)c(OCc2cccc(-c3ccccc3)c2Br)cc1OCc1cccnc1 [IMMH-010]
IC50 (PD-1/PD-L1): 10 to 100 nM | Body Weight (g) X ± SD Finish ([4]; B16F10, IMMH-010 maleate 1.25 mg/kg PO once daily 19 days): 20.2 ± 1.4 g | Body Weight (g) X ± SD Start ([4]; B16F10, IMMH-010 maleate 1.25 mg/kg PO once daily): 17.09 ± 0.63 g | Body Weight (g) X ± SD Finish ([4]; B16F10, IMMH-010 maleate 2.5 mg/kg PO once daily 19 days): 20.3 ± 1.2 g | Body Weight (g) X ± SD Start ([4]; B16F10, IMMH-010 maleate 2.5 mg/kg PO once daily): 16.86 ± 0.57 g | Body Weight (g) X ± SD Finish ([4]; B16F10, IMMH-010 maleate 5 mg/kg PO once daily 19 days): 20.0 ± 1.2 g | Body Weight (g) X ± SD Start ([4]; B16F10, IMMH-010 maleate 5 mg/kg PO once daily): 17.09 ± 0.81 g | Body Weight (g) X ± SD Finish ([4]; B16F10, IMMH-010 maleate 10 mg/kg PO once daily 19 days): 20.1 ± 1.0 g | Body Weight (g) X ± SD Start ([4]; B16F10, IMMH-010 maleate 10 mg/kg PO once daily): 17.15 ± 0.50 g | effect on body weight ([4]; B16F10 model, IMMH-010 maleate PO once a day for 19 days): without weight loss
